From ChEMBL document CHEMBL1909046, “DrugMatrix in vitro pharmacology data” come the findings set out here.

Test [1] concerns the target Prostaglandin G/H synthase 1 (Homo sapiens, UniProt P23219). As to the kind of experiment: biochemical. Format: tissue-based, Platelet. The settings on record: platelet.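 Note: inhibition of COX-1 enzyme activity, with arachidonic acid supplied as substrate; in other assays of this panel Not Active means under 50% inhibition at 10 µM.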
Test [2] is described as follows: DRUGMATRIX: Calcium Channel Type L, Phenylalkylamine radioligand binding (ligand: [3H] (-)-Desmethoxyverapamil (D-888)). Format: cell membranes, Rattus norvegicus, Wistar, Brain, Membrane. The note with it: Not Active = under 50% inhibition at 10 µM.
Test [3] in a line: DRUGMATRIX: Sigma2 radioligand binding (ligand: [3H] Ifenprodil). The settings on record: Not Active = under 50% inhibition at 10 µM. Type of test: cell membranes, Rattus norvegicus, Wistar, Brain, Membrane.
The target in test [4] is Delta-type opioid receptor (Homo sapiens, UniProt P41143). Format: cell membranes, HEK293, Membrane. Note: in other assays of this panel Not Active means under 50% inhibition at 10 µM.
Sequence of Delta-type opioid receptor (P41143 whole entry): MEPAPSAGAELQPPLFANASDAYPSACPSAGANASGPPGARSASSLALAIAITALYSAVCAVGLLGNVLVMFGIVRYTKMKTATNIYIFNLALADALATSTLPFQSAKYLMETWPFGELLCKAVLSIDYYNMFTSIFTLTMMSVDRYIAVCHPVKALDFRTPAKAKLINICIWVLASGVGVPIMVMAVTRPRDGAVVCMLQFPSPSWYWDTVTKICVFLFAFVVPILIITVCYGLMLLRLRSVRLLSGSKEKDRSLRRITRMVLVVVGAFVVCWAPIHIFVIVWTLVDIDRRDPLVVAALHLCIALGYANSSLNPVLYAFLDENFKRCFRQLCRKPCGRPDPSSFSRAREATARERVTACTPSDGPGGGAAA
Test [5] concerns the target T1, Calcitonin receptor (Homo sapiens, UniProt P30988). Note: in other assays of this panel Not Active means under 50% inhibition at 10 µM.
T1 sequence (P30988 whole entry): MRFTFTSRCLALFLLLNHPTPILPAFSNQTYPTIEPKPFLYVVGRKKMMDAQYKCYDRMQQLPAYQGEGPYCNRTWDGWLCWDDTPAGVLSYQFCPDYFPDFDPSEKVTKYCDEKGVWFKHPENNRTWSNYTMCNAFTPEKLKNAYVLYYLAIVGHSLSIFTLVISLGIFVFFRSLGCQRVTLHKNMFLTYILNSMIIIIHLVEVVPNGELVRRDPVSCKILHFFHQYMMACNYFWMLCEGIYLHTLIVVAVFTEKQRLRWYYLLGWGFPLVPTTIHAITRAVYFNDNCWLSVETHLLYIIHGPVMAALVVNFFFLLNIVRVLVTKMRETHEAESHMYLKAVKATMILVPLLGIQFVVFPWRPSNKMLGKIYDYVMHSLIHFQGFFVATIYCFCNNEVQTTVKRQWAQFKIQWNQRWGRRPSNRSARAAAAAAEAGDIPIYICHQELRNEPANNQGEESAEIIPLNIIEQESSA
Type of test: cell membranes, Membrane. The note with it: t47d.

The target of test [6] is T2, Cysteinyl leukotriene receptor 1 (Homo sapiens, UniProt Q9Y271). Note: in other assays of this panel Not Active means under 50% inhibition at 10 µM.
T2 sequence (Q9Y271 whole entry): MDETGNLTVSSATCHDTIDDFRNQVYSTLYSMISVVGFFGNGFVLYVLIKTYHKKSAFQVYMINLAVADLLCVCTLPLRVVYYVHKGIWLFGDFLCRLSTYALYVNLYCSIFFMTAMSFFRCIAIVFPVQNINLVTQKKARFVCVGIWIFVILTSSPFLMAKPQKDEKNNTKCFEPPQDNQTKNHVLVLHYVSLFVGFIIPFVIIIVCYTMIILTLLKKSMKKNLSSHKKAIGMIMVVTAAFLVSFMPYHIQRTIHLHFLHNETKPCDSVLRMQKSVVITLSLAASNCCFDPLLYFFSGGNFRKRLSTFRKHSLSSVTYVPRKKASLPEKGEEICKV
Format: cell membranes, Membrane. The settings on record: cho-k1.

Test [7] can be described thus: DRUGMATRIX: ATPase, Na+/K+ enzyme inhibition (substrate: ATP). Type of test: tissue-based, Sus scrofa, Heart. The settings on record: Not Active = under 50% inhibition at 10 µM.

Sequence of Prostaglandin G/H synthase 1 (P23219 whole entry): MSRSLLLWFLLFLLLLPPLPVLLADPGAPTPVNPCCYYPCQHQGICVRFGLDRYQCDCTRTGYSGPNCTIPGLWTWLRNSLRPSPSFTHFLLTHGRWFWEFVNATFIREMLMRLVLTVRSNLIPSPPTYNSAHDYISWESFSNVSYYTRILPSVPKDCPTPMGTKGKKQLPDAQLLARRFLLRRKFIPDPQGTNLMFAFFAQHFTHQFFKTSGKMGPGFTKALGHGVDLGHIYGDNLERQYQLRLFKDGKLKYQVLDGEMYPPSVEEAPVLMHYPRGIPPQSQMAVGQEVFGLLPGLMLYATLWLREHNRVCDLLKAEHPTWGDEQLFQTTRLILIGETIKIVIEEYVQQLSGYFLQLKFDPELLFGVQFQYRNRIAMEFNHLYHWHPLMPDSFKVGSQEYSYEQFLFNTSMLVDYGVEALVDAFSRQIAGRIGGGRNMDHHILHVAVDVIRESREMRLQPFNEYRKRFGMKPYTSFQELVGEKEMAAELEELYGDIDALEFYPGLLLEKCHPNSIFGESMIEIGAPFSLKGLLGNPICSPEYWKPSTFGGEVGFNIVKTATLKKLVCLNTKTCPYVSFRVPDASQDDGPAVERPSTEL

With `COc1cc(N)nc2[nH]c(-c3ccc(F)cc3)c(-c3ccncc3)c12`, the IC50 result in test [1], in test [2], in test [3], in test [4] (hek293), in test [5] and in test [6] was “Not Active” in each case. Moreover, the IC50 (commonly the midpoint of a concentration-inhibition curve) in test [7] was “Not Active”. For the same compound, the Ki result in test [2], in test [3] and in test [7] was “Not Active” throughout.
With `CNS(=O)(=O)Cc1ccc2[nH]cc(CCN(C)C)c2c1`, the IC50 result in test [1], in test [2], in test [3], in test [4] (hek293), in test [5] and in test [6] was “Not Active” throughout. Besides, the IC50 entry in test [7] is recorded as “Not Active”. The Ki entry in test [2], in test [3] and in test [7] was “Not Active” throughout.
Regarding `CCCc1nn(C)c2c(=O)[nH]c(-c3cc(S(=O)(=O)N4CCN(C)CC4)ccc3OCC)nc12`, the IC50 result in test [1], in test [2], in test [3], in test [4] (hek293), in test [5] and in test [6] was “Not Active” in each case. The IC50 entry in test [7] was “Not Active”. Also, the Ki result in test [2], in test [3] and in test [7] was “Not Active” in each case.
Regarding `COc1ccc(/C=C/C(=O)Nc2ccccc2C(=O)O)cc1OC`, the IC50 entry in test [1], in test [2], in test [3], in test [4] (hek293), in test [5] and in test [6] was “Not Active” in each case. Further, in test [7], the IC50 entry is on record as “Not Active”. The Ki result in test [2], in test [3] and in test [7] was “Not Active” in each case.
`CCOC(N)=O`: the IC50 entry in test [1], in test [2], in test [3], in test [4] (hek293), in test [5] and in test [6] was “Not Active” throughout. Besides, the IC50 result in test [7] is “Not Active”. In addition, the Ki result in test [2], in test [3] and in test [7] was “Not Active” each time.
`CC(=O)Nc1nnc(S(N)(=O)=O)s1` [ACETAZOLAMIDE]: the IC50 result in test [1], in test [4] (hek293), in test [5] and in test [6] was “Not Active” each time.
With `O=c1[nH]c2ccccc2n1CCCN1CCC(n2c(=O)[nH]c3cc(Cl)ccc32)CC1` [DOMPERIDONE], the IC50 result in test [1], in test [4] (hek293), in test [5] and in test [6] was “Not Active” in each case.
With `CC1=C(CC(=O)O)c2cc(F)ccc2/C1=C\c1ccc(S(C)(=O)=O)cc1` [EXISULIND], the IC50 result in test [1], in test [2], in test [3], in test [4] (hek293), in test [5] and in test [6] was “Not Active” throughout. In addition, the IC50 entry in test [7] is “Not Active”. Further, the inhibition constant Ki entry in test [2], in test [3] and in test [7] was “Not Active” in each case.
As to `CC(C)OC(=O)C(C)(C)Oc1ccc(C(=O)c2ccc(Cl)cc2)cc1` [FENOFIBRATE], the IC50 entry in test [1], in test [4] (hek293), in test [5] and in test [6] was “Not Active” each time.
As for `OCCN1CCN(CCCN2c3ccccc3Sc3ccc(C(F)(F)F)cc32)CC1` [FLUPHENAZINE], the IC50 result is “Not Active” in test [1], 24 µM in test [4] (read-out: IC50), “Not Active” in test [5] and “Not Active” in test [6]. Also, in test [4] (read-out: Ki), the inhibition constant (Ki) – broadly, the equilibrium dissociation constant of an inhibitor or competing ligand from its target – was 8.47 µM.
As for `CN1C2CCCC1CC(NC(=O)c1nn(C)c3ccccc13)C2` (configuration not stated) [GRANISETRON], the IC50 entry in test [1], in test [4] (hek293), in test [5] and in test [6] was “Not Active” each time.
For `Nc1nc2c(c(=O)[nH]1)N(C=O)C(CNc1ccc(C(=O)N[C@@H](CCC(=O)O)C(=O)O)cc1)CN2` (some centres not stated) [LEUCOVORIN], the half-inhibitory concentration (IC50) entry in test [1], in test [2], in test [3], in test [4] (hek293), in test [5] and in test [6] was “Not Active” each time. The IC50 result in test [7] is reported as “Not Active”. The Ki entry in test [2], in test [3] and in test [7] was “Not Active” in each case.
Turning to `C[C@@H](O)[C@H]1C(=O)N2C(C(=O)O)=C(S[C@@H]3CN[C@H](C(=O)N(C)C)C3)[C@H](C)[C@H]12` [MEROPENEM], the IC50 entry in test [1], in test [2], in test [3], in test [4] (hek293), in test [5] and in test [6] was “Not Active” in each case. In test [7], the IC50 result is on record as “Not Active”. Further, the Ki result in test [2], in test [3] and in test [7] was “Not Active” in each case.
For the compound `CC[C@@H](CO)NC(=O)[C@@H]1C=C2c3cccc4c3c(cn4C)C[C@H]2N(C)C1` [METHYSERGIDE], the IC50 result in test [1], in test [4] (hek293), in test [5] and in test [6] was “Not Active” in each case.
For the compound `CCN(CC)CC#CCOC(=O)C(O)(c1ccccc1)C1CCCCC1` (configuration not stated) [OXYBUTYNIN], the IC50 entry in test [1], in test [4] (hek293), in test [5] and in test [6] was “Not Active” in each case.
In the case of `O=P(O)(O)C(O)(Cc1cccnc1)P(=O)(O)O` [RISEDRONIC ACID], the IC50 result in test [1], in test [2], in test [3], in test [4] (hek293), in test [5] and in test [6] was “Not Active” in each case. In addition, the IC50 result in test [7] is “Not Active”. Moreover, the Ki entry in test [2], in test [3] and in test [7] was “Not Active” in each case.
For `CN(CCOc1ccc(CC2SC(=O)NC2=O)cc1)c1ccccn1` (configuration not stated) [ROSIGLITAZONE], the IC50 result in test [1], in test [2], in test [3], in test [4] (hek293), in test [5] and in test [6] was “Not Active” in each case. The IC50 entry in test [7] is “Not Active”. Also, the Ki entry in test [2], in test [3] and in test [7] was “Not Active” throughout.
Turning to `O=c1n(CCCN2CCN(c3cccc(Cl)c3)CC2)nc2ccccn12` [TRAZODONE], the half-maximal inhibitory concentration (IC50) entry in test [1], in test [4] (hek293), in test [5] and in test [6] was “Not Active” each time.
On to `COc1cc(C(=O)NS(=O)(=O)c2ccccc2C)ccc1Cc1cn(C)c2ccc(NC(=O)OC3CCCC3)cc12` [ZAFIRLUKAST], for which the IC50 result in test [1], in test [2], in test [3], in test [4] (hek293), in test [5] and in test [7] was “Not Active” each time. In addition, the Ki entry in test [2], in test [3] and in test [7] was “Not Active” each time.
